Data on 25 compounds can be found in ChEMBL document CHEMBL5241111, “Non-steroidal anti-inflammatory drugs: recent advances in the use of synthetic COX-2 inhibitors” (RSC Med Chem, 2022).

One test concerns MCF7. Nature of the test: cells. To be noted: Homo sapiens, MCF7, 48 h.
Test [1] addresses T1, Prostaglandin G/H synthase 2 (Homo sapiens, UniProt P35354).
T1 sequence (P35354 whole entry): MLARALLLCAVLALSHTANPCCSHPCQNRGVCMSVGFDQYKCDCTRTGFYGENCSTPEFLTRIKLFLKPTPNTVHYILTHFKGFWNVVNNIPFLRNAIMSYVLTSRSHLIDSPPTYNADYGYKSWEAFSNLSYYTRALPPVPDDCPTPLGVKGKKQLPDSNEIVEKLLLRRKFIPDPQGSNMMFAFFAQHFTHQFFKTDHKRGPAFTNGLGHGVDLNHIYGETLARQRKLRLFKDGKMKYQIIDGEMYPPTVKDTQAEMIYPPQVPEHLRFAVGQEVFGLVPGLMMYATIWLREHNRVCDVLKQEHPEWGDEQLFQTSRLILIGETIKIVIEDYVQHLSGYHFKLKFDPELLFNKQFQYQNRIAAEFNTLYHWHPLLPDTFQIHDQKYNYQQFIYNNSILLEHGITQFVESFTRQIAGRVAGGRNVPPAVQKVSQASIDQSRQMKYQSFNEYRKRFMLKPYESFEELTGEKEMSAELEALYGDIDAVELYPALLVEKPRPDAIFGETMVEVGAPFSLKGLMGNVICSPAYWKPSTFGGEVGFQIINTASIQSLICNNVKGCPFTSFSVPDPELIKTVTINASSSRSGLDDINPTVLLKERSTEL
The experiment in a line: Inhibition of human COX-2 using arachidonic acid as substrate preincubated for 5 mins followed by substrate addition and measured after 2 mins by colorimetric assay.

Test [2] has as its target cGMP-specific 3',5'-cyclic phosphodiesterase (Homo sapiens) (UniProt O76074). The experiment in a line: Inhibition of human PDE5 using cGMP as substrate at 10 uM preincubated for 5 mins followed by substrate addition and measured after 30 mins by HPLC analysis relative to control. To be noted: time 35.0 min.
Test [3] relates to Rattus norvegicus. The experiment in a line: Antiinflammatory activity against rat model of carrageenan induced paw edema assessed as inhibition of edema measured after 1 to 6 hrs relative to control. The class given is functional. To be noted: time 1-6 hrs. On the technique in general: In the carrageenan paw model, swelling and tenderness develop within hours.
Test [4] relates to Rattus norvegicus. The experiment in a line: Antiinflammatory activity against rat model of carrageenan induced paw edema assessed as inhibition of edema at 50 mg/kg, po pretreated for 1 hr followed by carrageenan addition and measured after 1 to 6 hrs relative to control. The class given is functional. As to conditions: time 2-7 hrs.
Test [5] concerns Rattus norvegicus. The experiment in a line: Antiinflammatory activity against rat model of carrageenan induced paw edema assessed as reduction in PGE2 level in plasma at 50 mg/kg, po pretreated for 1 hr followed by carrageenan addition and measured after 6 hrs by ELISA relative to control. As to conditions: time 7 hrs. The class given is functional.
For test [6], the species on record is Homo sapiens. Nature of the test: Inhibition of ROS production in human blood. The format is functional.
The species named for test [7] is Homo sapiens. Nature of the test: Inhibition of ROS production in human blood at 25 ug/ml relative to control. The class given is functional.
The target in a further test is Albumin (Bos taurus, UniProt P02769). The experiment in a line: Inhibition of bovine serum albumin denaturation incubated for 15 mins.
For a further test, the system named is HCT-116. The experiment in a line: cells. As to conditions: Homo sapiens, HCT-116, 48 h.
For another test, the system named is A549. The experiment in a line: cells. As to conditions: Homo sapiens, A549, 48 h.
Another test deals with T2, Dihydrofolate reductase (Homo sapiens, UniProt P00374).
T2 sequence (P00374 whole entry): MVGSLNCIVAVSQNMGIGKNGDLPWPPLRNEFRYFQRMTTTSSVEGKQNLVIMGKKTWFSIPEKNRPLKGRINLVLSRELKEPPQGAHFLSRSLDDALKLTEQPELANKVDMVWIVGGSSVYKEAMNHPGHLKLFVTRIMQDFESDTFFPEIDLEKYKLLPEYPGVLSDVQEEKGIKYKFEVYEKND
The experiment in a line: Inhibition of DHFR (unknown origin).

Test [8] has as its target T1, Prostaglandin G/H synthase 2. Nature of the test: Inhibition of human recombinant COX-2 by enzyme immunoassay.
Test [9] has as its system Rattus norvegicus. Nature of the test: Antiinflammatory activity against rat model of carrageenan induced paw edema assessed as reduction in TNFalpha level in plasma at 50 mg/kg, po pretreated for 1 hr followed by carrageenan addition and measured after 6 hrs by ELISA relative to control. The format is functional. To be noted: time 7 hrs.
The test system of test [10] is Rattus norvegicus. The experiment in a line: Antiinflammatory activity against rat model of carrageenan induced paw edema assessed as reduction in IL-6 level in plasma at 50 mg/kg, po pretreated for 1 hr followed by carrageenan addition and measured after 6 hrs by ELISA relative to control. The class given is functional. To be noted: time 7 hrs.
In test [11] the target is T1, Prostaglandin G/H synthase 2. The experiment in a line: Inhibition of COX-2 (unknown origin) by colorimetric assay.
The target in test [12] is T3, Prostaglandin G/H synthase 2 (Homo sapiens) (UniProt P35354).
T3 sequence (whole entry): T1 sequence (P35354 whole entry)
The experiment in a line: Potency index, ratio of celecoxib IC50 to test compound IC50 for inhibition of COX-2 (unknown origin) by colorimetric assay.

For test [13], the species on record is Homo sapiens. The experiment in a line: Potency index, ratio of ibuprofen IC50 to test compound IC50 for inhibition of ROS production in human blood. The format is functional.

Converted amounts (≈) assume the structure as drawn.

Sequence of Albumin (P02769 whole entry): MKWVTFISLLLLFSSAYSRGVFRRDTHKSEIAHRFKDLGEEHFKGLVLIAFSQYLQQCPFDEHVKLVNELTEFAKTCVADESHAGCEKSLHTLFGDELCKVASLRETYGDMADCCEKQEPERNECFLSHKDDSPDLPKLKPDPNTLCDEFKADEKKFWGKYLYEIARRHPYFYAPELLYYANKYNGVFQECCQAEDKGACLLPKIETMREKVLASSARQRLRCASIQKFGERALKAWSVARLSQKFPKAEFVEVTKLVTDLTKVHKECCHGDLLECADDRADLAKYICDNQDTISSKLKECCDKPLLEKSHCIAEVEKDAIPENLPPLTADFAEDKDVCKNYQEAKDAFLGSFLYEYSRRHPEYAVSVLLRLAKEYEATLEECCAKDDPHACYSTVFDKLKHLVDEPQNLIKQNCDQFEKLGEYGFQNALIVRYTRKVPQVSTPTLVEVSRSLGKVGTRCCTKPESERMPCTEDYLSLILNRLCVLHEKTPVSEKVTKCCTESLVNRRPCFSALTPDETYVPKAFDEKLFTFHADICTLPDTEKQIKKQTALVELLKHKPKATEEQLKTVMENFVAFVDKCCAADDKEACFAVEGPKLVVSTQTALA

For the compound `CCOP(=O)(OCC)C(NC(=O)c1cc(-c2cccc3ccccc23)n(-c2ccc(F)cc2)n1)c1ccccc1` (stereo not given), half-maximal inhibition with MCF7 (IC50) was put at 4.37 µM.

In the case of `CCCCCC1C(C)=c2c(OCc3nnc(SCC(=O)N4CCN(c5ncccn5)CC4)o3)nn(C)c(=O)c2=C1C` (stereo not given), the half-inhibitory concentration (IC50) in test [1] came to 6.8 µM.

As for `COc1ccc(N/C(C)=C\C(=O)Nc2nccs2)cc1`, the inhibition in test [2] was 100%.

Turning to `COc1ccc(-c2cc(-c3ccc(F)cc3)n(-c3ccc(S(N)(=O)=O)cc3)n2)cc1`, in the test with Rattus norvegicus [3], the “inhibition (INH)” value was 42.1%.

Turning to `COc1cc(-c2cc(-c3cccc(-n4cnnn4)c3)no2)cc(OC)c1OC`, the results for the inhibition in vivo at 50 mg/kg in the test on Rattus norvegicus [4] and with Rattus norvegicus [5] were 29.2% and 81%, respectively.

In the case of `CC1=c2c(OCc3nnc(SCC(=O)N4CCN(c5ncccn5)CC4)o3)nn(C)c(=O)c2=C(C)C1c1ccccc1` (stereo not given), half-maximal inhibition in test [1] (IC50) was put at 6.8 µM.

Consider `CCCC(=O)Nc1ccc(OC(=O)c2ccncc2)cc1`, for which the 50% inhibitory concentration (IC50) in the test listed under Homo sapiens [6] turned out to be 3.7 µg/mL (≈ 13 µM). The inhibition in vivo at 25 µg/mL in the test listed under Homo sapiens [7] turned out to be 85.4%.

Regarding `COc1ccc(C2=NN(C(N)=O)C(c3cn(-c4ccccc4)nc3-c3ccccc3)C2)cc1` (stereo not given), the IC50 on Albumin came out at 43.5 µM.

For `CCOc1ccc2nc(NC(=O)CSc3nnc(Cc4c[nH]c5ccccc45)o3)sc2c1`, the IC50 in the test with HCT-116 and in the test on A549 was 6.43 µM throughout.

The compound `C/C(=C/C(=O)Nc1nccs1)Nc1ccccc1` displayed an inhibition in test [2] of 100%.

As to `Nc1ccc(S(=O)(=O)Nc2ncccn2)cc1` [SULFADIAZINE], on Dihydrofolate reductase, the IC50 amounted to 0.13 µM.

Turning to `COc1cc(/C=c2\sc3nc(C45CC6CC(CC(C6)C4)C5)nn3c2=O)ccc1O`, the half-maximal inhibitory concentration (IC50) in test [8] amounted to 50 µM.

For `NS(=O)(=O)c1ccc(N2C(=O)/C(=C/c3ccc(OC(=O)c4ccccc4)cc3)N=C2c2ccccc2)cc1`, at Dihydrofolate reductase, the IC50 amounted to 0.28 µM.

Turning to `CS(=O)(=O)c1ccc(-c2cc(-c3ccc(F)cc3)n(-c3ccc(S(N)(=O)=O)cc3)n2)cc1`, in the test on Rattus norvegicus [3], the “inhibition (INH)” value is recorded as 42.1%.

For the compound `CC1=c2c(OCc3nnc(SCC(=O)N4CCN(c5ccccc5)CC4)o3)nn(C)c(=O)c2=C(C)C1c1ccccc1` (stereo not given), in [1], the IC50 turned out to be 6.8 µM.

Turning to `CCCCCC1C(C)=c2c(OCc3nnc(SCC(=O)N4CCN(c5ccccc5)CC4)o3)nn(C)c(=O)c2=C1C` (stereo not given), half-maximal inhibition in test [1] (IC50) was put at 6.8 µM.

For `COc1cc(C2CC(c3cccc(-n4cnnn4)c3)=NN2C(C)=O)cc(OC)c1OC` (stereo not given), the inhibition in vivo at 50 mg/kg in the test on Rattus norvegicus [4] turned out to be 29.2%; with Rattus norvegicus [5], 81%; in the test with Rattus norvegicus [9] it was 55.4%; with Rattus norvegicus [10], 61.6%.

On Dihydrofolate reductase, `COc1cc(/C=C2\N=C(c3ccccc3)N(c3ccc(S(N)(=O)=O)cc3)C2=O)ccc1OC(=O)c1ccccc1` returned an IC50 of 0.28 µM.

On to `O=c1/c(=C/c2cccc(O)c2)sc2nc(C34CC5CC(CC(C5)C3)C4)nn12`, for which the concentration for half-maximal inhibition (IC50) in test [8] came out at 50 µM.

For `C/C(=C/C(=O)Nc1nccs1)Nc1ccc(Cl)cc1`, the inhibition in test [2] was 100%.

In turn, `CCCCNc1cc(C(=O)n2nc(C)cc2-c2ccccc2)cc(S(N)(=O)=O)c1Oc1ccccc1` came in with an IC50 in test [11] of 0.32 µM. Further, the Ratio IC50 in [12] was 12.

Compound `Nc1cccc(OC(=O)c2ccncc2)c1` had an IC50 in the test filed under Homo sapiens [6] of 1.42 µg/mL (≈ 6.63 µM). This compound gave an inhibition in vivo at 25 µg/mL in the test listed under Homo sapiens [7] of 95.9%. Besides, the “Ratio IC50” value in the test listed under Homo sapiens [13] worked out at 8.

Turning to `CCCCNc1cc(-c2n[nH]c(=S)n2-c2ccc(Br)cc2)cc(S(N)(=O)=O)c1Oc1ccccc1`, it took 0.17 µM to reach half-maximal inhibition in test [11] (IC50). The Ratio IC50 in test [12] worked out at 12.

As for `COc1ccc(-c2cc(-c3ccc(F)cc3)n(-c3ccc(S(N)(=O)=O)cc3)n2)cc1OC`, the “inhibition (INH)” value with Rattus norvegicus [3] came out at 42.1%.

Turning to `CC(C)Cc1ccc(C(C)C(=O)O)cc1` (stereo not given) [IBUPROFEN], the concentration for half-maximal inhibition (IC50) in the test listed under Homo sapiens [6] was found to be 11.2 µg/mL (≈ 54.3 µM).

The IC50 is the concentration at which inhibition is half-maximal. As a reminder, the inhibition is the change of the read-out against control, counted positive when it falls. A higher inhibition goes with a strong effect. The term inhibition in vivo denotes the percentage by which the read-out fell short of the control.
